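Assay format: 96-well plates, 48-hour exposure. GI50 = concentration required for 50% inhibition of growth.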 Active and inactive are the calls of the source. Cut-off read from the data, not from the text of the source: active = GI50 up to about 1.1 µM and inactive = higher.
Tests used:
Test in all cases: NCI anticancer screen, dose series, 48 h
[1] = system: DLD-1
[2] = system: DMS-114
[3] = system: KM-20L2
[4] = system: M19-MEL
[5] = system: RXF 631
[6] = system: SNB-78
[7] = system: XF498
[8] = system: DMS-273
[9] = system: HOP-18

SMILES	GI50 [1]	GI50 [2]	GI50 [3]	GI50 [4]	GI50 [5]	GI50 [6]	GI50 [7]	GI50 [8]	GI50 [9]
O=NN(CCCl)C(=O)NCc1ccc[n+]([O-])c1	> 100 µM (inactive)	> 100 µM (inactive)	> 100 µM (inactive)	> 100 µM (inactive)	> 100 µM (inactive)	> 100 µM (inactive)	> 100 µM (inactive)		
COc1cccc2nc3cc(C)c(C)cc3nc12	79.1 µM (inactive)	> 100 µM (inactive)	> 100 µM (inactive)	> 100 µM (inactive)	> 100 µM (inactive)	> 100 µM (inactive)	> 100 µM (inactive)	> 100 µM (inactive)	> 100 µM (inactive)
CCOC(=O)CN(Cc1ccccc1)Cc1c(C(=O)c2ccccc2)c2ccccc2n1C(=O)c1ccccc1	> 100 µM (inactive)	> 100 µM (inactive)	> 100 µM (inactive)	> 100 µM (inactive)		> 100 µM (inactive)	73.1 µM (inactive)	> 100 µM (inactive)	
COC(=O)CCC1CCc2c(OC)ccc(O)c2C1=O (stereo unspecified)	> 100 µM (inactive)			> 100 µM (inactive)	> 100 µM (inactive)	> 100 µM (inactive)		> 100 µM (inactive)	
O=C(NC1=C(Cl)C(=O)c2ccccc2C1=O)C(=O)C(C(=O)c1ccc2ccccc2c1)C1OC(=O)c2ccccc21 (stereo unspecified)	4.31 µM (inactive)	2.36 µM (inactive)	4.52 µM (inactive)	0.309 µM (active)		3.76 µM (inactive)			
CCC1(Cl)C(=O)NC(=O)N(C2CC(O)C(CO)O2)C1N=[N+]=[N-] (stereo unspecified)	> 100 µM (inactive)	80.4 µM (inactive)	> 100 µM (inactive)	> 100 µM (inactive)	> 100 µM (inactive)	> 100 µM (inactive)	> 100 µM (inactive)	> 100 µM (inactive)	
COc1cc2c(cc1OC)[C@@H](Nc1ccc(F)cc1)C1COC(=O)[C@@H]1C2c1cc(OC)c(O)c(OC)c1 (stereo partly specified)	3.13 µM (inactive)	1.15 µM (inactive)	3.04 µM (inactive)	5.08 µM (inactive)	1.73 µM (inactive)	> 20.4 µM (inactive)	3 µM (inactive)	0.0832 µM (active)	5.35 µM (inactive)
Cc1ccc(C)c(N2C(=O)C(=O)C(c3nc4ccccc4o3)C(=O)C2=O)c1	22.9 µM (inactive)	44 µM (inactive)	> 100 µM (inactive)	59.2 µM (inactive)	> 100 µM (inactive)	> 100 µM (inactive)		> 100 µM (inactive)	> 100 µM (inactive)
COC(=O)c1cc2c3ccccc3n(C(C)=O)c2cn1	> 100 µM (inactive)	> 100 µM (inactive)	> 100 µM (inactive)	> 100 µM (inactive)	77.6 µM (inactive)	> 100 µM (inactive)	38.6 µM (inactive)	> 100 µM (inactive)	44.9 µM (inactive)
Cc1cc(N(CCOS(C)(=O)=O)CCOS(C)(=O)=O)ccc1/C=N/c1ccc(-c2nc(Cc3ccccc3)sc2C)cc1	12.8 µM (inactive)	7.91 µM (inactive)	7.19 µM (inactive)	10 µM (inactive)		32.9 µM (inactive)	2.26 µM (inactive)	1.87 µM (inactive)	6.64 µM (inactive)
COc1ccc([C@H]2[C@@H]3CCc4ccccc4C3=NN2C(N)=S)cc1OC	53 µM (inactive)	28.8 µM (inactive)	57.7 µM (inactive)	34.3 µM (inactive)		> 100 µM (inactive)	> 100 µM (inactive)		> 100 µM (inactive)
Cc1cn(C2CC3C(COCN3O)O2)c(=O)[nH]c1=O (stereo unspecified)		> 100 µM (inactive)	> 100 µM (inactive)	> 100 µM (inactive)			> 100 µM (inactive)	> 100 µM (inactive)	
CC1OC(OC2C(OC(=O)[C@]34CCC(C)(C)CC3C3=CCC5[C@@]6(C)C[C@H](O)[C@H](OC7OC(CO)C(O)C(O)C7N)[C@@](C)(C(=O)O)C6CC[C@@]5(C)C3(C)CC4)OCC(O)C2O)C(O)C(O)C1OC1OCC(O)C(O)C1O (stereo partly specified)	> 100 µM (inactive)	> 100 µM (inactive)	> 100 µM (inactive)	> 100 µM (inactive)		> 100 µM (inactive)		> 100 µM (inactive)	> 100 µM (inactive)
CC1=CC(=O)CCC2(C)C1CC[C@@H]2OC=O (stereo partly specified)	> 100 µM (inactive)	> 100 µM (inactive)	82.2 µM (inactive)	> 100 µM (inactive)	> 100 µM (inactive)	> 100 µM (inactive)	> 100 µM (inactive)	> 100 µM (inactive)	> 100 µM (inactive)
CC1=CCC2(C#N)CCC1C2=O (stereo unspecified)	> 100 µM (inactive)	> 100 µM (inactive)	> 100 µM (inactive)	> 100 µM (inactive)	> 100 µM (inactive)	> 100 µM (inactive)	> 100 µM (inactive)		
CC(=O)OC1C(O)C(C)OC(OC2C(OC(=O)C3CCC4C(C3)OC3(CC(OC(=O)/C=C/c5ccccc5)C(C)CO3)C43CO3)OC(C)C(O)C2OC(C)=O)C1O (stereo unspecified)	0.38 µM (active)	0.0251 µM (active)	0.041 µM (active)	0.0174 µM (active)		0.056 µM (active)	0.0357 µM (active)	0.0259 µM (active)	0.0906 µM (active)
COc1cccc(NC(=O)C(C)(C)C)c1SSc1c(NC(=O)C(C)(C)C)cccc1OC	> 43.7 µM (inactive)	> 10 µM (inactive)	98.4 µM (inactive)	35.2 µM (inactive)		22.3 µM (inactive)	15.2 µM (inactive)	96.8 µM (inactive)	> 69.7 µM (inactive)
CN(C)C(=O)Nc1c([N+](=O)[O-])cc(C(F)(F)F)cc1[N+](=O)[O-]			26.5 µM (inactive)			33.5 µM (inactive)	16.8 µM (inactive)	43.8 µM (inactive)	
Cc1cccc(C2SCc3nc4ccccc4n32)c1 (stereo unspecified)	25.2 µM (inactive)	10.9 µM (inactive)		24 µM (inactive)		27.5 µM (inactive)			< 0.01 µM (active)
COc1cccc2c1C(=O)OC2c1cccc2ccccc12 (stereo unspecified)	> 100 µM (inactive)	> 100 µM (inactive)	> 100 µM (inactive)	> 100 µM (inactive)		> 100 µM (inactive)	34.8 µM (inactive)	> 100 µM (inactive)	> 85.5 µM (inactive)
N#CC(C(=O)/C(=N/Nc1nc(S)nn1N)C(C#N)c1ccccc1)c1ccccc1 (stereo unspecified)	> 100 µM (inactive)	> 100 µM (inactive)	> 100 µM (inactive)	> 100 µM (inactive)	> 100 µM (inactive)	> 100 µM (inactive)	> 100 µM (inactive)	> 100 µM (inactive)	0.403 µM (active)
CNC(=O)OC1/C(C)=C\C(C)C(O)C(OC)CC(C)CC2=C(OC)C(=O)C=C(C2=O)N(C)C(=O)/C(C)=C/C=C\C1OC (stereo unspecified)	1.96 µM (inactive)	4.99 µM (inactive)	2.53 µM (inactive)	5 µM (inactive)	15.1 µM (inactive)	7.21 µM (inactive)	3.72 µM (inactive)	3.31 µM (inactive)	9.27 µM (inactive)
N#CC(N)(C(=O)C(=O)NCCCNC(=O)C(=O)C(N)(C#N)c1ccc(Cl)cc1)c1ccc(Cl)cc1 (stereo unspecified)	> 100 µM (inactive)	> 100 µM (inactive)	> 100 µM (inactive)	> 100 µM (inactive)	> 100 µM (inactive)	> 100 µM (inactive)	> 100 µM (inactive)	> 100 µM (inactive)	> 100 µM (inactive)
CC(C)C(NCc1c2ccccc2[n+](C)c2ccccc12)C(=O)O (stereo unspecified)	2.39 µM (inactive)	2.28 µM (inactive)	2.78 µM (inactive)	7.33 µM (inactive)	4.74 µM (inactive)	5.73 µM (inactive)	4.99 µM (inactive)	3.25 µM (inactive)	5.78 µM (inactive)
CC1=C2C(=O)C3[C@@H](CCC4=CC(=O)CC[C@@]43C)C2CC[C@]12O[C@@H]1C[C@H](C)CN[C@H]1[C@H]2C (stereo partly specified)	> 100 µM (inactive)	15.3 µM (inactive)	68.4 µM (inactive)	36.2 µM (inactive)			12.6 µM (inactive)	17.7 µM (inactive)	49.3 µM (inactive)

Source: ChEMBL document CHEMBL1201862, “PubChem BioAssay data set” (2004)
